Paper PMC6209770 (Frontiers in Pharmacology, 2018)
Several values for one entry are separate records, joined by “and”; a condition that tells them apart may be missing. Equal entries are not always repeated. Where two headings read alike, the source gives them in different places.

How the values were obtained:
serotonin levels = test system: serotonin levels; parameters: method as in Imaizumi et al. (1996); details: 3-day treatment with pCPA 200 mg/kg; ref Imaizumi et al. (1996); cited from earlier work
mice [1] = assay: Spontaneous locomotor activity; format: in vivo
Method: Photoresistor actometers (Ugo Basile, Italy) connected to a counter for the recording of light-beam interruptions were used to investigate the effect of the compound on locomotor activity in mice. Locomotor activity was counted as the number of the light-beam crossing. It was recorded individually for each animal. After administration of the tested compound, each mouse was placed separately in a cage for 30 min habituation period. After that time, the parameter was measured for 1 min and 5 min (i.e., time equal to the observation period in four plate test and elevated plus maze test, respectively). The cages were sanitized with 70% ethanol after each mouse.

mice [2] = assay: Four plate test after pretreatment with pCPA, WAY-100635 or AMPT; format: in vivo
Method: (§1) Mice were placed individually in the four plate apparatus connected to the power source. After a 15 s of habituation period, each mouse crossing from one plate to another (two limbs on one plate, two on another) was punished by an electric shock (0.8 mA, 0.5 s). If the mouse continued running, it received no new shock for the following 3 s. The number of punished crossings was calculated during the 60 s of the test.
We performed the four plate test 30 min after the administration.
Control group received vehicle (1% Tween). […] We performed the four plate test 30 min after the compound administration.

mice [3] = assay: Elevated plus maze test; format: in vivo
mice [4] = assay: Four plate test; format: in vivo
Method: as §1

D2 receptor = D2 receptor (Homo sapiens, UniProt P14416); assay: cell-based
Method: (§2) Serial dilutions were prepared in 96-well microplate in appropriate dilution buffer (HBSS or medium) with 0.1% BSA added, and 8–10 concentrations were tested in duplicates. At least two independent experiments were performed for each type of method. Assays were done according to manufacturer’s protocols.

GABAA receptor = details: read-out: GABAA receptors Ki ± SEM; rat cerebral cortex, [3H]-muscimol 1 nM
Method: The final incubation mixture (total volume 250 μl) consisted of a 50 μl solution of the test compound, 50 μl of radioligand and 150 μl of diluted membranes or the tissue suspension. The incubation was terminated by rapid filtration over glass fiber filters GF/B (PerkinElmer, United States) using 96-well FilterMate Harvester (PerkinElmer, United States). Five rapid washes were performed with ice-cold 50 mM Tris–HCl buffer (pH 7.4 or 7.6). […] Radioligand binding data were analyzed using iterative curve fitting routines GraphPad Prism 5.0 (GraphPad Software). […] At least two independent experiments were performed for each assay.

[5] = biological target: T1, human serotonin 5-HT1A receptor (Homo sapiens, UniProt P08908); assay: cAMP assay (TR-FRET), CHO-K1 cells; details: 5-HT1A cAMP assay
T1 sequence (P08908 1-422): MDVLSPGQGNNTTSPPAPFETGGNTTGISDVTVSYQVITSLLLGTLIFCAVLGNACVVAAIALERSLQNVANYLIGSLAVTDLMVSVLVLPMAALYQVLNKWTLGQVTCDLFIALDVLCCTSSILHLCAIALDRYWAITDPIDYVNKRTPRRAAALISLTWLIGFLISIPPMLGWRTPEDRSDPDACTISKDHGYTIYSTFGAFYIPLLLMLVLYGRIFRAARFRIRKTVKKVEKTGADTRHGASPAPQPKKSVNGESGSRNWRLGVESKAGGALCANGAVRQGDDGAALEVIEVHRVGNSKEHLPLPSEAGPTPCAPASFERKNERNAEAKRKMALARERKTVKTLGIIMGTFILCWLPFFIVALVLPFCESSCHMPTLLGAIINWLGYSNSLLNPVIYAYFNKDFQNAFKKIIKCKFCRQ

5-HT1A receptor [6] = biological target: T2, 5-HT1A receptor (Homo sapiens, UniProt P08908); assay: Tango LiveBLAzer β-arrestin recruitment assay, HTR1A-bla U2OS cells; details: 5-HT1A ß-arrestin assay
T2 sequence (P08908 1-422): T1 sequence (P08908 1-422)

5-HT1A receptor [7] = biological target: T2, 5-HT1A receptor; assay: SureFire ERK-phosphorylation AlphaLISA assay, CHO-5HT1A cells; details: 5-HT1A pERK1/2 assay
Method: as §2

5-HT1A receptor [8] = biological target: T2, 5-HT1A receptor; parameters: expressed in transfected cells; host or cells: CHO (CHO-5HT1A); method as in Kubacka et al., 2016; details: 5-HT1A Ca2+ assay, ref Kubacka et al., 2016, cited from earlier work
5-HT2A receptor = 5-HT2A receptor (Homo sapiens, UniProt P28223); format: cell-based
Method: as §2

[9] = antagonist mode, serotonin EC80 (120 nM)
[10] = antagonist mode, serotonin EC80 (300 nM)
[11] = antagonist mode, serotonin EC80 (45 nM)

In the case of `N[C@@H](Cc1ccc(Cl)cc1)C(=O)O` (racemic) [pCPA, p-Chlorophenylalanine], the “Reduction of serotonin levels in the cortex” value (serotonin levels) is given as 30%, the “Reduction of serotonin levels in the diencephalon” value (serotonin levels) is given as 35% and the “Reduction of serotonin levels in the midbrain” value (serotonin levels) is given as 24%. The “Reduction of serotonin levels in the pons with medulla” value (serotonin levels) was 34%, the “Number of crossings ± SEM” value (mice [1]; pCPA experiment, pCPA 200 mg/kg) was 29.4 and the “Effect on number of punished crossings” value (mice [2]; pCPA alone, 200 mg/kg i.p., three days) was “did not influence”.

For `CCCN(CCC)C1CCc2cccc(O)c2C1` (stereo not drawn) [8-OH-DPAT], the “Increase in time spent in the open arms vs non-treated control” value (mice [3]; 2 mg/kg, 15 min before test (but not 0.25, 0.5 or 1 mg/kg)) was 154.3%, the “Effect on number of open arm entries” value (mice [3]; 8-OH-DPAT doses tested up to 2 mg/kg, 15 min before test) was “no effect” and the “Increase in the number of punished crossings” value (mice [4]; 0.5 mg/kg, 15 min before test (but not 0.25, 1 or 2 mg/kg)) was 38.2%.

For `CC(N)(Cc1ccc(O)cc1)C(=O)O` (stereo not drawn) [AMPT, α-methyl-p-tyrosine], the “Number of crossings ± SEM” value (mice [1]; AMPT experiment, AMPT 100 mg/kg) was 24.5 and the “Effect on number of punished crossings” value (mice [2]; AMPT alone, 100 mg/kg i.p.) was “had no effect”.

`CN1CCc2cccc3c2[C@H]1Cc1ccc(O)c(O)c1-3` [Apomorphine] gave an Emax (D2 receptor; read-out: Agonist mode Emax %) of 100% and an Emax (D2 receptor; read-out: Antagonist mode Emax %) of 1%.

In the case of `CN1C(=O)CN=C(c2ccccc2)c2cc(Cl)ccc21` [Diazepam, diazepam], the “Increase in number of open arm entries vs non-treated control” value (mice [3]; mouse, in vivo) is reported as 78.5% and 73.9% and 124.6%, the “Increase in time spent in the open arms vs non-treated control” value (mice [3]; mouse, in vivo) is reported as 84.6% and 59.9% and the Ki (GABAA receptor) is reported as 5.6 ± 0.7 nM.

In the case of `COc1ccccc1N1CCN(CCCOc2cc(C)ccc2C)CC1.Cl` [HBK-17, 1-[(2,5-dimethylphenoxy)propyl]-4-(2-methoxyphenyl)piperazine hydrochloride], the “Number of crossings ± SEM” value (mice [1]; mouse, in vivo, ip, 5 mg/kg) is reported as 44.8.

For `CC1CCN(CC[C@H]2CCCN2S(=O)(=O)c2cccc(O)c2)CC1` [SB269970], the “Increase in the number of punished crossings vs non-treated control” value (mice [4]; […] i.p. 30 min before test (but not 1.25 or 5 mg/kg)) was 137.5%.

With `COc1ccccc1N1CCN(CC(C(=O)NC(C)(C)C)c2ccccc2)CC1` (stereo not drawn) [WAY-100135] the “Agonist mode Emax %” value ([5]; agonist mode, 10 μM forskolin) was 2%, the “Antagonist mode Emax %” value [5, 9] was 8% and the “Antagonist mode pIC50” value [5, 9] was 7.9. For the same compound, the Kb ([5]; read-out: Antagonist mode Kb, antagonist mode, serotonin EC80 (120 nM)) was 6.4 nM, the “Agonist mode Emax %” value (5-HT1A receptor [6]; agonist mode, relative to serotonin) was 1% and the “Antagonist mode Emax %” value (5-HT1A receptor [6]; [10]) was 5%. For the same compound, the “Antagonist mode pIC50” value (5-HT1A receptor [6]; [10]) was 8.1, the Kb (5-HT1A receptor [6]; read-out: Antagonist mode Kb, antagonist mode, serotonin EC80 (300 nM)) was 5.9 nM and the “Agonist mode Emax %” value (5-HT1A receptor [7]; agonist mode) was 2%. For the same compound, the “Antagonist mode Emax %” value (5-HT1A receptor [7]; [11]) was 0%, the “Antagonist mode pIC50” value (5-HT1A receptor [7]; [11]) was 7.90 and the Kb (5-HT1A receptor [7]; read-out: Antagonist mode Kb, antagonist mode, serotonin EC80 (45 nM)) was 2.7 nM. For the same compound, the “Agonist mode Emax %” value (5-HT1A receptor [8]; agonist mode) was 2%, the “Antagonist mode Emax %” value (5-HT1A receptor [8]; antagonist mode) was 0% and the “Antagonist mode pIC50” value (5-HT1A receptor [8]; antagonist mode) was 8.3. The Kb (5-HT1A receptor [8]; antagonist mode) was 0.8 nM.

For `COc1ccccc1N1CCN(CCN(C(=O)C2CCCCC2)c2ccccn2)CC1` [WAY-100635], the “Number of crossings ± SEM” value (mice [1]; WAY-100635 experiment, WAY-100635 0.3 mg/kg) was 27.9 and the “Effect on number of punished crossings” value (mice [2]; WAY-100635 alone, 0.3 mg/kg s.c.) was “did not influence”.

For `CC(N)Cc1c[nH]c2ccc(O)cc12` (stereo not drawn) [α-Methylserotonin, α-methylserotonin], the “Agonist mode Emax %” value (5-HT2A receptor; agonist mode) was 100%, the “Agonist mode pEC50” value (5-HT2A receptor; agonist mode) was 8.70 and the “Antagonist mode Emax %” value (5-HT2A receptor; antagonist mode) was 1%.
